Literature values as cited in US20110201657A1, “AMIDE SUBSTITUTED INDAZOLE AND BENZOTRIAZOLE DERIVATIVES AS POLY(ADP-RIBOSE)POLYMERASE (PARP) INHIBITORS” (Istituto di Ricerche di Biologia Molecolare P. Angeletti SpA, priority 2006, published 2011).

Tested on: infarct size in the heart
Conditions: rabbits

Compound	reduction in infarct size in the heart (single injection 10 mg/kg, one minute before occlusion or before reperfusion)	reduction in infarct size (single injection 1 mg/kg)
NC(=O)c1cccc(N)c1 [3-amino-benzamide]	32-42%	–
Oc1cccc2c(O)nccc12 [1,5-dihydroxyisoquinoline]	–	38-48%
